Results reported in US7501454B2, “Cyclohexenone compounds from Antrodia camphorata to treat autoimmune diseases” (Golden Biotechnology Corporation, priority 2007, dated 2009).

Key:
female NZB/WF1 SLE mice [1] = assay: Changes of proteinuria in female NZB/WF1 SLE mice (Bio-Rad protein assay of urine); assay type: in vivo; settings: for proteinuria level: negative control 246 mg/dl
Protocol: (§1) Female NZB/WF1 mice spontaneously develop human SLE-like syndromes, such as generation of antinuclear autoantibodies, proteinuria, and renal toxicity to cause death. The disease is more severe in female mice than in male mice; the morbidity of female mice is also higher than that of male mice. Therefore, female NZB/WF1 mice were used for screening anti-SLE drugs in this study.
(§2) Thirty female NZB/WF1 mice (purchased from Jackson Lab, USA) between 12-24 weeks of age were analyzed biweekly to determine proteinuria levels, monthly to assess the titers of antinuclear autoantibody (ANA). The increased titers of ANA and positive response implicated that female NZB/WF1 mice were going to develop SLE and were ready for grouping. At 22 weeks of age, the animals showing the abovementioned syndromes were randomly divided into 3 groups (10 mice per group, water was administered to negative control group, steroid was given to positive control group, and cyclohexenone compounds of Antrodia camphorata was administered to experiment group), and the start time for the experiment was set as week zero. In addition, ten B6 mice (purchased from National Laboratory Animal Center, Taiwan) without SLE syndrome were normal mice served as blank group.
The blank group in Table 1 was B6 mice of no SLE syndrome, which received no treatment and normal diet for natural growth. NZB/WF1 female mice that were able to express SLE syndromes were served in negative control and positive control groups. Mice in the former group received normal water; in the latter were orally medicated with 1.25 mg/kg of prednisolone, the SLE drug. Mice in the experiment group were orally medicated with 50 mg/kg of cyclohexenone compounds from Example 1. […]
SLE patients develop renal inflammation and damage, which cause leakage of protein from kidney into the fluid. […] Ten μl of urine was assayed with Bio-Rad Protein Assay Dye Reagent Concentrate (Bio-Rad Laboratories, USA) and read under […] with an ELISA analyzer to determine the protein concentration with a standard curve.

female NZB/WF1 SLE mice [2] = assay: Titers of anti-dsDNA antinuclear antibodies in plasma of female NZB/WF1 SLE mice (Mouse Anti-dsDNA IgG ELISA kit); assay type: in vivo
Protocol: as §1, §2
The blank group in Table 1 was B6 mice of no SLE syndrome, which received no treatment and normal diet for natural growth. NZB/WF1 female mice that were able to express SLE syndromes were served in negative control and positive control groups. Mice in the former group received normal water; in the latter were orally medicated with 1.25 mg/kg of prednisolone, the SLE drug. Mice in the experiment group were orally medicated with 50 mg/kg of cyclohexenone compounds from Example 1. The mice were fed with the abovementioned substances once per day starting at 23 weeks of age, and this period of time was referred to as the first week of this experiment. […]
The titers of dsDNA antinuclear antibodies were determined in this study to assess the effects of cyclohexenone compounds from Antrodia camphorata on SLE mice. […]

Structure (SMILES) | proteinuria level (female NZB/WF1 SLE mice [1]; experiment group, 50 mg/kg oral once per day, after 6 weeks of experiment) [mg/dL] | fold increase of proteinuria level versus before experiment (female NZB/WF1 SLE mice [1]; experiment group, 50 mg/kg oral once per day, after 6 weeks, negative control 2.76-fold) [fold] | titers of anti-dsDNA antinuclear antibodies compared with negative group (female NZB/WF1 SLE mice [2]; experiment group, 50 mg/kg oral once per day, during 8 weeks of experiment) | titer of antinuclear antibodies decreased to (female NZB/WF1 SLE mice [2]; experiment group, 50 mg/kg oral once per day, week 8) [%] | proteinuria level (female NZB/WF1 SLE mice [1]; positive control group, prednisolone 1.25 mg/kg oral once per day, after 6 weeks) [mg/dL] | titer of anti-dsDNA antinuclear antibodies decreased to (female NZB/WF1 SLE mice [2]; positive group, prednisolone 1.25 mg/kg oral once per day, week 8)
COC1=C(OC)C(O)C(C/C=C(\C)CC/C=C(\C)CCC=C(C)C)C(C)C1=O (stereo not drawn) [4-hydroxy-2,3-dimethoxy-6-methyl-5(3,7,11-trimethyl-dodeca-2,6,10-trienyl)-cyclohex-2-enone] | 118.2 | 1.3 | significantly lower titers of anti-dsDNA antinuclear antibodies than those in the negative group | 34 | – | –
C[C@]12C=CC(=O)C=C1CC[C@@H]1[C@@H]2[C@@H](O)C[C@@]2(C)[C@H]1CC[C@]2(O)C(=O)CO [prednisolone, reference compound] | – | – | – | – | 32.6 | around 50%
